From the NIST ThermoML archive (doi:10.1021/acs.jced.9b00375) come the findings set out here.

SMILES strings stand for the structures. Numbers after ± are expanded uncertainties.

The conditions of series [1]: 298.15 K; 101.3 kPa; Liquid; Vibrating tube method.
Series [2] in a line: wn = mass fraction of the nth substance listed. To be noted: 298.15 K, 101.3 kPa, Liquid, Vibrating tube method.

In general, mass density refers to mass per unit of volume. Turning to `NCCO.O=CO` [2-hydroxyethylammonium formate], the mass density in series [1] amounted to 1215 ± 16 kg/m3. Take `NCCO.O=CO` [2-hydroxyethylammonium formate] + CCCCC: the mass density in series [2] (w2 = 0.9491) is 625.1 ± 16 kg/m3.

For the compound `NCCO.O=CO` [2-hydroxyethylammonium formate] + CCCCCC, the mass density was 1182.7 ± 16 kg/m3 in series [2] (w2 = 0.0028), 1194.1 ± 16 kg/m3 in series [2] (w2 = 0.0063), 655.6 ± 16 kg/m3 in series [2] (w2 = 0.997) and 663.6 ± 16 kg/m3 in series [2] (w2 = 0.9982). For the compound `NCCO.O=CO` [2-hydroxyethylammonium formate] + CCCCCCC, the mass density was 1183 ± 16 kg/m3 in series [2] (w2 = 0.0045) and 680 ± 16 kg/m3 in series [2] (w2 = 0.9989). Consider `NCCO.O=CO` [2-hydroxyethylammonium formate] + CCCCCCCC, for which the mass density in series [2] (w2 = 0.0035) came to 1192.6 ± 16 kg/m3; in series [2] (w2 = 0.9955), 699.5 ± 16 kg/m3; in series [2] (w2 = 0.9971), 699.7 ± 16 kg/m3.

On to `CCO` [ethanol], for which the mass density in series [1] was 785.7 ± 16 kg/m3.

Regarding `CCCCCCC` [heptane], in series [1], the mass density was found to be 679 ± 16 kg/m3. In the case of `CCCCCC` [hexane], the mass density in series [1] is given as 668 ± 16 kg/m3. Consider `CO` [methanol], for which, in series [1], the mass density is listed as 786.7 ± 16 kg/m3. As to `CCCCCCCC` [octane], in series [1], the mass density is listed as 698.7 ± 16 kg/m3. On to `CCCCC` [pentane], for which the mass density in series [1] was found to be 621.3 ± 16 kg/m3.
